From patent US20030082194A1, “Compositions and methods for diagnosis and therapy of malignant mesothelioma” (priority 2000, published 2003)

What was measured:
[1] = test system: mouse B6 class I antigens (D^b or K^b molecules on RMA-S cells); assay: Peptide binding to C57Bl/6 murine MHC on RMA-S cells, flow cytometry (Tables 48, 49); assay type: cell-based
Procedure: In brief, RMA-S cells were cultured for 7 hrs at 26° C. in complete medium supplemented with 1% FCS. A total of […] RMA-S cells were added into each well of a 24-well plate and incubated either alone or with the designated peptide (25 μg/ml) for 16 hrs at 26° C. and additional 3 hrs at 37° C. in complete medium. Cells were then washed three times and stained with fluorescein isothiocyanate-conjugated anti Db or anti-Kb antibody (PharMingen, San Diego, CA). Labeled cells were washed twice, resuspended and fixed in 500 μl of PBS with 1% paraformaldehyde and analyzed for fluorescence intensity in a flow cytometer (Becton-Dickinson FACSCalibur®). The percentage of increase of D^b or K^b molecules on the surface of the RMA-S cells was measured by increased mean fluorescent intensity of cells incubated with peptide compared with that of cells incubated in medium alone.

[2] = test system: targets incubated with WT1 peptides (EL-4); assay: CTL chromium release assay, peptide-incubated targets; assay type: cell-based, mouse; settings: for generation of peptide specific CTL following immunization: mice immunized with peptide, spleen cells stimulated in vitro, chromium release; for lysis of targets incubated with the relevant peptide by peptide specific CTL: chromium release assay
Procedure: (§1) Following immunization, spleen cells were stimulated in vitro and tested for the ability to lyse targets incubated with WT1 peptides. CTL were evaluated with a standard chromium release assay (Chen et al., 1994). […] target cells were incubated at 37° C. with 150 μCi of sodium ^51Cr for 90 min., in the presence or absence of specific peptides. Cells were washed three times and resuspended in RPMI with 5% fetal bovine serum. For the assay, 10^4 51Cr-labeled target cells were incubated with different concentrations of effector cells in a final volume of 200 μl in U-bottomed 96-well plates. Supernatants were removed after 4-7 hrs at 37° C., and the percentage specific lysis was determined by the formula:
(§2) % Specific lysis=100×(experimental release−spontaneous release)/(maximum release-spontaneous release).
(§3) P117-139, a peptide with motifs appropriate for binding to class I and class II MHC, was identified as described above using TSITES and BIMAS HLA peptide binding prediction analyses. Mice were immunized as described in Example 3. Following immunization, spleen cells were stimulated in vitro and tested for the ability to lyse targets incubated with WT1 peptides, as well as WT1 positive and negative tumor cells. CTL were evaluated with a standard chromium release assay.
Following immunization, spleen cells were stimulated in vitro with each of the 4 peptides and tested for ability to lyse targets incubated with WT1 peptides.

[3] = test system: WT1 positive tumor cell lines (TRAMP-C, BLK-SV40); assay: CTL chromium release assay, WT1 positive tumor cell lines; assay type: cell-based, mouse
Procedure: as §1, §2
as §3, with “assay. […]” for “assay.”

[4] = test system: T cells / spleen cells of immunized B6 mice; assay: Proliferative T cell response, thymidine incorporation assay after immunization of B6 mice with WT1 peptides; assay type: cell-based, mouse; settings: for stimulation index (SI), proliferative T cell response: B6 mice immunized with WT1 peptides, thymidine incorporation, FIG. 3
[5] = Systemic histopathological and toxicological effects of WT1 protein immunization in mice; assay type: in vivo, mouse
Text: (§4) The purpose of this example is to analyze the immunogenicity and potential systemic histopathological and toxicological effects of WT1 protein immunization in a multiple dose titration in mice.
(§5) The experimental design for immunization of mice with WT1 protein is outlined in Table 51.
Special emphasis was put on evaluation of potential hematopoietic toxicity. The myeloid/erythroid ratio in sternum and femur marrow was normal.

WT1 = assay: Immunogenicity of WT1 protein immunization with MPL-SE, multiple dose titration in mice (Table 51); assay type: in vivo, mouse; settings: MPL-SE adjuvant; doses 25 μg, 100 μg to 1000μg WT1 protein; female C57/B6 mice
Text: as §4, §5

[6] = even on an outpatient basis; cited from earlier work
[7] = target: Mouse B6 (C57Bl/6) MHC class I antigens on RMA-S cells (D^b or K^b) (mouse (C57Bl/6)); assay: binding of 9-mer peptide to mouse B6 (H-2b) class I; RMA-S stabilisation assay as in Example 4
[8] = target: Mouse B6 (C57Bl/6) MHC class I antigens on RMA-S cells (D^b or K^b) (mouse (C57Bl/6)); assay: RMA-S MHC stabilisation, peptide 25 ug/ml, FITC anti-Db or anti-Kb, flow cytometry (MFI increase over medium alone)
[9] = peptide 25 μg/ml, percentage of increase of Db or Kb molecules (mean fluorescent intensity) vs medium alone, Table 48
[10] = 9-mer peptides within p117-139, mouse B6 class I antigens, Table 49
[11] = mice immunized with WT1 protein

## ALLPAVPSL (listed as Homo sapiens) [SEQ ID NO:34]
[1]; [9]
  Binding Affinity to Mouse MHC Class I: 2.2%
[2]
  generation of peptide specific CTL following immunization: peptide specific CTL lines were generated

## CMTWNQMNL (listed as Homo sapiens, listed as Mus musculus) [SEQ ID NO:49]
[1]; [9]
  Binding Affinity to Mouse MHC Class I: 33.6%
[3]
  lysis of WT1 positive tumor cells by peptide specific CTL: failed to lyse cell lines that expressed WT1 proteins
[2]
  lysis of targets incubated with the relevant peptide by peptide specific CTL: lysed targets incubated with the p235-243 peptides
[2]; listed as p235-243
  generation of peptide specific CTL following immunization: peptide specific CTL lines were generated

## GATLKGVAAGSSSSVKWTE (listed as Homo sapiens) [p244-262]
[4]; Vaccine A, bulk lines, peptide 25 μg/ml, 96 hr, FIG. 4A
  stimulation indices (SI), proliferative T cell responses to the immunizing peptides: No proliferative response

## NAPYLPSCL (listed as Homo sapiens) [SEQ ID NO:144]
[1]; [10]
  Binding Affinity to Mouse MHC Class I: 79%
[1]; peptide 25 μg/ml
  binding to H-2b class I molecules / class I MHC molecules: shown to bind to H-2b class I molecules
[3]
  lysis of WT1 positive tumor cells by peptide specific CTL: showed lysis of a WT1 positive tumor cell line
[2]; FIG. 10A
  lysis of targets incubated with 9-mer peptide by CTL generated by immunization with p117-139: lysed
[2]
  lysis of targets incubated with the relevant peptide by peptide specific CTL: demonstrated peptide specific lysis

## NLYQMTSQL (listed as Homo sapiens) [SEQ ID NO:147]
[1]; [9]
  Binding Affinity to Mouse MHC Class I: 5.8%

## P117-125 (PSQASSGQA) [Peptide P117-125]
[1]; [10]
  Binding Affinity to Mouse MHC Class I: 2%

## P118-126 (SQASSGQAR) [Peptide P118-126]
[1]; [10]
  Binding Affinity to Mouse MHC Class I: 2%

## P119-127 (QASSGQARM) [Peptide P119-127]
[1]; [10]
  Binding Affinity to Mouse MHC Class I: 2%

## P120-128 (ASSGQARMF) [Peptide P120-128]
[1]; [10]
  Binding Affinity to Mouse MHC Class I: 1%

## P121-129 (SSGQARMFP) [Peptide P121-129]
[1]; [10]
  Binding Affinity to Mouse MHC Class I: 1%

## P124-132 (QARMFPNAP) [Peptide P124-132]
[1]; [10]
  Binding Affinity to Mouse MHC Class I: 1%

## P125-133 (ARMFPNAPY) [Peptide P125-133]
[1]; [10]
  Binding Affinity to Mouse MHC Class I: 1%

## P127-135 (MFPNAPYLP) [Peptide P127-135]
[1]; [10]
  Binding Affinity to Mouse MHC Class I: 2%

## P128-136 (FPNAPYLPS) [Peptide P128-136]
[1]; [10]
  Binding Affinity to Mouse MHC Class I: 1%

## P129-137 (PNAPYLPSC) [Peptide P129-137]
[1]; [10]
  Binding Affinity to Mouse MHC Class I: 1%

## P131-139 (APYLPSCLE) [Peptide P131-139]
[1]; [10]
  Binding Affinity to Mouse MHC Class I: 1%

## RDLNALLPAVPSLGGGG (listed as Homo sapiens) [p6-22]
[4]
  stimulation index (SI), proliferative T cell response: 2.3
[4]; FIG. 5A, 5C
  proliferation of Vaccine A specific T cell line after single peptide in vitro stimulation: proliferation to p6-22 with no response to p117-139

## SCLESQPAI (listed as Homo sapiens) [SEQ ID NO:198]
[1]; [9]
  Binding Affinity to Mouse MHC Class I: 52%
[2]
  generation of peptide specific CTL following immunization: peptide specific CTL lines were generated

## VRRVSGVAPTLVRS (listed as Mus musculus) [P299-313]
[4]
  stimulation index (SI), proliferative T cell response: 3.3

## WT1 protein: WT1 protein used for vaccination of mice with MPL-SE as adjuvant
[5]; adrenal gland, brain, colon, heart, kidney, liver, lung, marrow, spleen and other listed tissues
  histological evidence for toxicity in tissues: No histological evidence for toxicity
[5]; [11]
  blood cell counts and blood chemistry (BUN, creatinine, bilirubin, albumin, globulin): within the normal range
  myeloid/erythroid ratio in sternum and femur marrow: normal
[5]; mice, multiple dose titration
  systemic histopathological or toxicological effects of immunization: No systemic histopathological or toxicological effects
WT1
  WT1-specific antibody response: elicited a strong WT1-specific antibody response
  cellular T-cell responses: cellular T-cell responses

## monophosphoryl lipid A [MPL]
[6]
  dose known to be safe for human use: 100 μg/m^2

## p221-229 (YSSDNLYQM)
[1]; [9]
  Binding Affinity to Mouse MHC Class I: 0.8%

## p228-236 (QMTSQLECM)
[1]; [9]
  Binding Affinity to Mouse MHC Class I: 1.2%

## p329-337 (GCNKRYFKL)
[1]; [9]
  Binding Affinity to Mouse MHC Class I: 1.2%

## QASSGQARM [WT1 peptide P119-127 (…)]
[7]
  Binding Affinity to Mouse MHC Class I (%): 2%

## ALLPAVPSL [WT1 peptide human p10-18 (…)]
[8]
  Binding Affinity to Mouse MHC Class I (% increase of Db or Kb on RMA-S cells): 2.2%

## NAPYLPSCL [WT1 peptide P130-138 (…)]
[7]
  Binding Affinity to Mouse MHC Class I (%): 79%

## GCNKRYFKL [WT1 peptide p329-337 (…)]
[8]
  Binding Affinity to Mouse MHC Class I (% increase of Db or Kb on RMA-S cells): 1.2%

## SQASSGQAR [WT1 peptide P118-126 (…)]
[7]
  Binding Affinity to Mouse MHC Class I (%): 2%

## ARMFPNAPY [WT1 peptide P125-133 (…)]
[7]
  Binding Affinity to Mouse MHC Class I (%): 1%

## PNAPYLPSC [WT1 peptide P129-137 (…)]
[7]
  Binding Affinity to Mouse MHC Class I (%): 1%

## QMTSQLECM [WT1 peptide p228-236 (…)]
[8]
  Binding Affinity to Mouse MHC Class I (% increase of Db or Kb on RMA-S cells): 1.2%

## QARMFPNAP [WT1 peptide P124-132 (…)]
[7]
  Binding Affinity to Mouse MHC Class I (%): 1%

## MFPNAPYLP [WT1 peptide P127-135 (…)]
[7]
  Binding Affinity to Mouse MHC Class I (%): 2%

## PSQASSGQA [WT1 peptide P117-125 (…)]
[7]
  Binding Affinity to Mouse MHC Class I (%): 2%

## CMTWNQMNL [WT1 peptide p235-243 (…)]
[8]
  Binding Affinity to Mouse MHC Class I (% increase of Db or Kb on RMA-S cells): 33.6%

## ASSGQARMF [WT1 peptide P120-128 (…)]
[7]
  Binding Affinity to Mouse MHC Class I (%): 1%

## APYLPSCLE [WT1 peptide P131-139 (…)]
[7]
  Binding Affinity to Mouse MHC Class I (%): 1%

## SCLESQPAI [WT1 peptide human p136-144 (…)]
[8]
  Binding Affinity to Mouse MHC Class I (% increase of Db or Kb on RMA-S cells): 52%

## NLYQMTSQL [WT1 peptide p225-233 (…)]
[8]
  Binding Affinity to Mouse MHC Class I (% increase of Db or Kb on RMA-S cells): 5.8%

## SSGQARMFP [WT1 peptide P121-129 (…)]
[7]
  Binding Affinity to Mouse MHC Class I (%): 1%

## YSSDNLYQM [WT1 peptide p221-229 (…)]
[8]
  Binding Affinity to Mouse MHC Class I (% increase of Db or Kb on RMA-S cells): 0.8%

## FPNAPYLPS [WT1 peptide P128-136 (…)]
[7]
  Binding Affinity to Mouse MHC Class I (%): 1%
